According to the NIST ThermoML archive (doi:10.1021/je301123j):
± gives the expanded uncertainty stated by the source.

Assay: xn = mol fraction of the nth substance listed
Conditions: for surface tension liquid-gas: Ring tensiometer; for mass density / speed of sound / viscosity: 100 kPa, Liquid

CCN1CCCC1=O [1-ethyl-2-pyrrolidinone] + OCCN(CCO)CCO
Conditions	mass density [kg/m3]	speed of sound [m/s]	surface tension liquid-gas [mN/m]	viscosity [mPa·s]
293.15 K, x1 = 0.1001	1112.5 ± 2.1	1611.4 ± 3.9	44.7 ± 0.8	570.35 ± 47
293.15 K, x1 = 0.2	1101.3 ± 2	1598.1 ± 3.9	43.4 ± 0.8	312.31 ± 20
293.15 K, x1 = 0.3	1089.95 ± 2	1585.4 ± 3.9	42 ± 0.8	164.25 ± 7
293.15 K, x1 = 0.4004	1077.59 ± 1.9	1574.5 ± 3.9	40.9 ± 0.8	81.22 ± 1.8
293.15 K, x1 = 0.5001	1066.06 ± 1.9	1565.5 ± 4	40.1 ± 0.8	41.49 ± 0.66
293.15 K, x1 = 0.6002	1053.3 ± 1.8	1555.6 ± 4	39.2 ± 0.8	21.52 ± 0.35
293.15 K, x1 = 0.7002	1040.32 ± 1.8	1545.9 ± 4	38.3 ± 0.8	11.54 ± 0.19
293.15 K, x1 = 0.8	1026.31 ± 1.7	1536.1 ± 4.1	37.8 ± 0.8	6.382 ± 0.11
293.15 K, x1 = 0.8998	1012.14 ± 1.6	1525.5 ± 4.1	36.9 ± 0.8	3.627 ± 0.063
293.15 K, x1 = 1	997.91 ± 1.6	1513.2 ± 4.1	36.5 ± 0.8	2.132 ± 0.032
303.15 K, x1 = 0.1001	1106.6 ± 2	1588.7 ± 3.9	43.9 ± 0.8	252.99 ± 14
303.15 K, x1 = 0.2	1095.17 ± 2	1575.4 ± 3.9	42.3 ± 0.8	151.13 ± 5.9
303.15 K, x1 = 0.3	1083.52 ± 1.9	1562.2 ± 3.9	41.3 ± 0.8	85.6 ± 1.9
303.15 K, x1 = 0.4004	1070.78 ± 1.9	1548.9 ± 3.9	40.2 ± 0.8	46.14 ± 0.69
303.15 K, x1 = 0.5001	1058.92 ± 1.8	1538.5 ± 3.9	39.2 ± 0.8	25.54 ± 0.38
303.15 K, x1 = 0.6002	1045.86 ± 1.8	1526.5 ± 4	38.6 ± 0.8	14.29 ± 0.22
303.15 K, x1 = 0.7002	1032.59 ± 1.7	1514.2 ± 4	37.5 ± 0.8	8.268 ± 0.13
303.15 K, x1 = 0.8	1018.3 ± 1.6	1502.2 ± 4	36.7 ± 0.8	4.866 ± 0.081
303.15 K, x1 = 0.8998	1003.86 ± 1.5	1490.5 ± 4.1	36 ± 0.8	2.902 ± 0.049
303.15 K, x1 = 1	989.34 ± 1.6	1475 ± 4.1	35.2 ± 0.8	1.777 ± 0.027
313.15 K, x1 = 0.1001	1100.7 ± 2	1569.8 ± 3.8	43 ± 0.8	132.88 ± 4.6
313.15 K, x1 = 0.2	1088.99 ± 1.9	1555.1 ± 3.9	41.6 ± 0.8	82.06 ± 1.6
313.15 K, x1 = 0.3	1076.98 ± 1.9	1540.4 ± 3.9	40.6 ± 0.8	47.47 ± 0.66
313.15 K, x1 = 0.4004	1063.92 ± 1.8	1524.8 ± 3.9	39.4 ± 0.8	28.4 ± 0.4
313.15 K, x1 = 0.5001	1051.74 ± 1.7	1512.2 ± 3.9	38.3 ± 0.8	16.84 ± 0.24
313.15 K, x1 = 0.6002	1038.43 ± 1.7	1497.6 ± 3.9	37.6 ± 0.8	10.07 ± 0.15
313.15 K, x1 = 0.7002	1024.86 ± 1.6	1483.1 ± 4	36.4 ± 0.8	6.178 ± 0.096
313.15 K, x1 = 0.8	1010.29 ± 1.5	1468.6 ± 4	35.8 ± 0.8	3.794 ± 0.062
313.15 K, x1 = 0.8998	995.57 ± 1.5	1456.6 ± 4	35 ± 0.8	2.379 ± 0.04
313.15 K, x1 = 1	980.76 ± 1.7	1437.6 ± 4.1	34.2 ± 0.8	1.515 ± 0.023
323.15 K, x1 = 0.1001	1094.74 ± 1.9	1551.9 ± 3.8	–	75.13 ± 1.3
323.15 K, x1 = 0.2	1082.69 ± 1.9	1534.9 ± 3.8	–	46.57 ± 0.6
323.15 K, x1 = 0.3	1070.36 ± 1.8	1517.4 ± 3.9	–	29.62 ± 0.38
323.15 K, x1 = 0.4004	1057 ± 1.7	1500.3 ± 3.9	–	18.7 ± 0.25
323.15 K, x1 = 0.5001	1044.54 ± 1.7	1485.3 ± 3.9	–	11.73 ± 0.17
323.15 K, x1 = 0.6002	1030.97 ± 1.6	1469.1 ± 3.9	–	7.428 ± 0.11
323.15 K, x1 = 0.7002	1017.11 ± 1.5	1452.3 ± 3.9	–	4.758 ± 0.074
323.15 K, x1 = 0.8	1002.27 ± 1.4	1435.5 ± 4	–	3.06 ± 0.049
323.15 K, x1 = 0.8998	987.27 ± 1.6	1422.3 ± 4	–	1.994 ± 0.033
323.15 K, x1 = 1	972.16 ± 1.8	1400.6 ± 4	–	1.31 ± 0.02
